Measurements reported in patent publication USRE38551E1, “Anticonvulsant enantiomeric amino acid derivatives” (priority 1996, dated 2004).

Columns and labels:
[1] = target: p-nitroanisole O-demethylase; assay: in vitro p-nitroanisole O-demethylase inhibition; assay type: biochemical; settings: listed as Compound A, read-out: I50, in vitro p-nitroanisole O-demethylase activity
Excerpt: This interpretation is supported by the similar effectiveness of Compound A by the MES test, the increased hexobarbital sleep time, and the unaltered liver microsomal enzyme activity. In view of the increased hexobarbital sleep time in the 5-day treated animals, it was thought important to determine the in vitro effect of Compound A on p-nitroanisole O-demethylase activity. […] This may indicate that the potentiation of hexobarbital sleep time is central and not peripheral.

[2] = system: liver microsomal system; assay: 7-day liver microsomal studies; assay type: in vivo, rats; settings: rat, in vivo, 48 mg/kg
Description: Two of the three groups of animals subjected to the hexobarbital sleep time test (chronically treated and vehicle control groups) were continued on their respective original treatment regimen for two days (days 6 and 7) and 24 hours later (day 8) subjected to liver microsomal studies. The rats were decapitated and the livers perfused with 0.9% sodium chloride solution. The livers were removed, weighed, and homogenized in 0.25M sucrose. Microsomes were prepared and their drug metabolizing capabilities (microsomal protein yield; cytochrome P-450 concentration; p-nitroanisole O-demethylase and NADPH cytochrome c reductase activities; norbenzphetamine MI complex formation; and glucuronyl transferase, erythromycin demethylase, and ethylmorphine demethylase activities) measured (Arch. Biochem. Biophys. 143: 318-329, 1971).

[3] = rotorod neurologic toxicity test, mice (ip); assay type: in vivo; settings: male, Carthworth Farms No. 1, in vivo, ip; mouse, i.p., rotorod test at peak effect (Table 6); read-out: MOUSE ED50 Neurotox
Excerpt: (§1) Compounds were screened for anticonvulsant activity in both male albino Carthworth Farms No. 1 mice (ip route) and male albino Sprague Dawley rats [oral (po) route]. Activity was established using the electrical (maximal electroshock or MES) test. In the MES test, a drop of electrolyte solution with anesthetic (0.5% butacaine hemisulfate in 0.9% sodium chloride) was used in the eyes of the animals prior to positioning the corneal electrodes and delivery of current. […] Protection endpoints were defined as the abolition of the hind limb tonic extensor component of the induced seizure. In mice, effects of compounds on forced spontaneous motor activity were determined using the rotorod test. […] Normally under these conditions, mice maintain their balance almost indefinitely. In rats, motor impairment is assessed by observing for overt evidence of ataxia, abnormal gait and stance, and/or loss of placing response and muscle tone. In the mouse identification screening study all compounds were given at three dose levels (30, 100, 300 mg/kg) and two time periods (0.5 hours, 4 hours). Typically, in the MES seizures test one animal was tested at 30 mg/kg and 300 mg/kg, and three animals at 100 mg/kg. In the rotored toxicity test four animals were tested at 30 mg/kg, and 300 mg/kg, and eight animals at 100 mg/kg.
(§2) The quantitative determination of the median effective (ED50) and toxic doses (TD50) was conducted at previously calculated times of peak effect. Groups of at least eight animals were tested using different doses of test compound until at least two points wee determined between 100 and 0% protection and minimal motor impairment. The dose of candidate substance required to produce the defined end-point in 50% of the animals in each test and the 95% confidence interval was calculated.

[4] = system: motor impairment (rotorod test); assay: rotorod neurologic toxicity test, mice (ip); assay type: in vivo; settings: mice, ip, rotorod test, at time of peak effect
Excerpt: as §1, §2

[5] = motor impairment (ataxia, gait, stance) observation, rats (po); assay type: in vivo; settings: male, Sprague Dawley, in vivo, rat
Excerpt: (§3) Compounds were screened for anticonvulsant activity in both male albino Carthworth Farms No. 1 mice (ip route) and male albino Sprague Dawley rats [oral (po) route]. Activity was established using the electrical (maximal electroshock or MES) test. In the MES test, a drop of electrolyte solution with anesthetic (0.5% butacaine hemisulfate in 0.9% sodium chloride) was used in the eyes of the animals prior to positioning the corneal electrodes and delivery of current. A 60 cycle alternating current was administered for 0.2 sec. in both species, 50 mA in mice and 150 mA in rats. Protection endpoints were defined as the abolition of the hind limb tonic extensor component of the induced seizure. In mice, effects of compounds on forced spontaneous motor activity were determined using the rotorod test. […] Normally under these conditions, mice maintain their balance almost indefinitely. In rats, motor impairment is assessed by observing for overt evidence of ataxia, abnormal gait and stance, and/or loss of placing response and muscle tone. In the mouse identification screening study all compounds were given at three dose levels (30, 100, 300 mg/kg) and two time periods (0.5 hours, 4 hours). Typically, in the MES seizures test one animal was tested at 30 mg/kg and 300 mg/kg, and three animals at 100 mg/kg. In the rotored toxicity test four animals were tested at 30 mg/kg, and 300 mg/kg, and eight animals at 100 mg/kg.
as §2

[6] = system: motor impairment; assay: as above; assay type: in vivo
Excerpt: as §3, §2

[7] = system: liver; settings: rats, p.o., short term

SMILES | IC50 [1] [mM] | NADPH cytochrome c reductase activity ([2]; Sprague Dawley, 7 days) [nmol/mg/min] | p-nitroanisole O-demethylase activity ([2]; Sprague Dawley, 7 days) [nmol/mg/min] | liver microsomal enzyme activity [2] | ED50 [3] [mg/kg] | tox, TD50 [4] | ED50 ([5]; oral (Table 6), read-out: RAT ED50 Neurotox) [mg/kg] | TD50 ([5]; po, at time of peak effect, read-out: tox, TD50) [mg/kg] | RAT ED50 Neurotox ([6]; oral (Table 6)) [mg/kg] | tox, TD50 ([6]; rat, po, at time of peak effect) | liver necrosis ([7]; 3.9 or 100 mg/kg daily) | liability for serious drug-drug interactions and liver toxicity (battery of liver enzyme studies) [7]
CC(=O)NC(C)C(=O)NCc1ccccc1 (racemic) [compound 1, N-Acetyl-D,L-alanine-N′-benzylamide] | 5 | 105.0 ± 4.1 | 0.62 ± 0.07 | unaltered | 454 | 454 [0.5] mg/kg | > 1000 | > 1000 |  |  |  | 
COC[C@@H](NC(C)=O)C(=O)NCc1ccccc1 [Ex. 1, 2, (R)-N-Benzyl-2-Acetamide-3-methoxypropionamide] |  |  |  |  |  |  |  |  | >500 | >500 [0.5] mg/kg | no evidence of causing liver necrosis | relatively low
